# According to ChEMBL document CHEMBL1201862, “PubChem BioAssay data set” (2004):
# The source made the active and inactive calls.
# Key:
# [1] = biological target: T1, Zinc finger protein mex-5 (Caenorhabditis elegans, UniProt Q9XUB2); experiment: MEX-5/TCR-2 RNA interaction inhibitors, dose response, biochemical, C. elegans, fluorescence polarization (AID 1960)
# T1 sequence (Q9XUB2 whole entry): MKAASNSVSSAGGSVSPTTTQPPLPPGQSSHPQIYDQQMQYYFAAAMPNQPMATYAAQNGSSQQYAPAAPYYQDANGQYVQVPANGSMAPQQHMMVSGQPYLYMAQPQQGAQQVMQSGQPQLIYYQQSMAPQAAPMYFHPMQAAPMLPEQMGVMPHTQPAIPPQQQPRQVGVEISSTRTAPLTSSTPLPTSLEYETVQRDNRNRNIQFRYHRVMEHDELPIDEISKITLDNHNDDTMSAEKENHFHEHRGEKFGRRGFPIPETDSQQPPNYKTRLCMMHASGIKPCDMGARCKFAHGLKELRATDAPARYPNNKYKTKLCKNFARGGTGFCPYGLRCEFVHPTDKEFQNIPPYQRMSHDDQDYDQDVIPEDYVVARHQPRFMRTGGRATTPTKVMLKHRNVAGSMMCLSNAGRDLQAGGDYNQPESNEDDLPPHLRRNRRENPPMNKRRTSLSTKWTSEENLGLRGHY
# [2] = biological target: T2, RNA-binding protein pos-1 (Caenorhabditis elegans, UniProt G5EF15); experiment: inhibitors of POS-1/mex-3 RNA binding, dose response, biochemical, fluorescence polarization (AID 1964);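 also: purified POS-1 fused to maltose binding protein made in E. coli; potency of compounds blocking POS-1 binding to fluorescent RNA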
# T2 sequence (G5EF15 whole entry): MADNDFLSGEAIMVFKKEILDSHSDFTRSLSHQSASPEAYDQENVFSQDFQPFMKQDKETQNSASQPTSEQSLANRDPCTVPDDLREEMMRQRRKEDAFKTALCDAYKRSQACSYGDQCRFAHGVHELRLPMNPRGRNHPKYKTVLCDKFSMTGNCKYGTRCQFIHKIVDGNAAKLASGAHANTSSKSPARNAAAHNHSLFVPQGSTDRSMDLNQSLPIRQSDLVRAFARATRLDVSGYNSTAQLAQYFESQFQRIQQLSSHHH
# [3] = Luminescence Cell-Based Dose Confirmation HTS to Identify Inhibitors of Platelet Dense Granule Release. [Related pubchem assays: 1663 (Primary HTS), 1678 (Summary of Project)]; format: functional
# Streptokinase A = biological target: T3, Streptokinase A (Streptococcus pyogenes serotype M1, UniProt P10520); experiment: S. pyogenes streptokinase expression inhibitors, potency, dose response, plasminogen activation absorbance, OD405 (AID 1914); format: functional, Streptococcus pyogenes M1 GAS;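 also: secreted streptokinase activity via plasminogen activation per viability signal from cell pellet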
# T3 sequence (P10520 whole entry): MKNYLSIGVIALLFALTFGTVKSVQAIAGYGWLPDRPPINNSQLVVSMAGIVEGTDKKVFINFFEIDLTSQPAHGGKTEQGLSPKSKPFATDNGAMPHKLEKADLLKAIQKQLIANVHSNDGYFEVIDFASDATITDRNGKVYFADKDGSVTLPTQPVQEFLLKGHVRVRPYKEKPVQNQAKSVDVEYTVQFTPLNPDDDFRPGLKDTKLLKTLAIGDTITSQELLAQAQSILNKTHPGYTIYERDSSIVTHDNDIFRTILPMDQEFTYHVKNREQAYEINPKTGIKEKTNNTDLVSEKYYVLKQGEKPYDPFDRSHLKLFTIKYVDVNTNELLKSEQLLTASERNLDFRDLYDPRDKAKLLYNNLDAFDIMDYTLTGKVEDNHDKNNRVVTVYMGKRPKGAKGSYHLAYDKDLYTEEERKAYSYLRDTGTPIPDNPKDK
# [4] = system: Streptococcus sp. 'group A'; experiment: growth inhibition of control SK(-) GAS strain, dose response, counter-screen for streptokinase expression inhibitor project, luminescence, kanamycin, BacTiterGlo, confirmation (AID 1900); format: functional, organism-based
# Streptococcus = experiment: Group A Streptococcus viability loss, dose response, counter-screen for streptokinase expression inhibitor project, luminescence, BacTiterGlo (AID 1915); format: functional, organism-based;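 also: potency for reduction of bacterial viability or growth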
# [5] = biological target: Luciferin 4-monooxygenase (Photinus pyralis, UniProt P08659); experiment: firefly luciferase enzyme inhibitors, dose response, biochemical, luminescence (AID 1891)
# Sequence of Luciferin 4-monooxygenase (P08659 whole entry): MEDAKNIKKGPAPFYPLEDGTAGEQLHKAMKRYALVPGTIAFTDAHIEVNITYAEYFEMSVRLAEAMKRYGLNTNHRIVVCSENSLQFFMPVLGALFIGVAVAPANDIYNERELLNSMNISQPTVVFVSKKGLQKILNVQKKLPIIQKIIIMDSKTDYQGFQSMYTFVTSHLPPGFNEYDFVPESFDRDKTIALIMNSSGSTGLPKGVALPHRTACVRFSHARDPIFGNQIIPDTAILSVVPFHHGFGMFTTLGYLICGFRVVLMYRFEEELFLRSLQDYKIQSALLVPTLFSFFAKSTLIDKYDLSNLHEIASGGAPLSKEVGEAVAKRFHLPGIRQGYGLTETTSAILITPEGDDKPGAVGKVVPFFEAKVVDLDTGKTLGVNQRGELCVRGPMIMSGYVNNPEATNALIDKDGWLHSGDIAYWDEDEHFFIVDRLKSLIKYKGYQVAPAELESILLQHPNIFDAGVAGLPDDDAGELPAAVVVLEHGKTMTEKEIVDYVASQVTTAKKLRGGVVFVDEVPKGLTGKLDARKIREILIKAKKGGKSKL
# Cytochrome P450 2C9 = Cytochrome P450 2C9 (Homo sapiens, UniProt P11712)
# Sequence of Cytochrome P450 2C9 (P11712 whole entry): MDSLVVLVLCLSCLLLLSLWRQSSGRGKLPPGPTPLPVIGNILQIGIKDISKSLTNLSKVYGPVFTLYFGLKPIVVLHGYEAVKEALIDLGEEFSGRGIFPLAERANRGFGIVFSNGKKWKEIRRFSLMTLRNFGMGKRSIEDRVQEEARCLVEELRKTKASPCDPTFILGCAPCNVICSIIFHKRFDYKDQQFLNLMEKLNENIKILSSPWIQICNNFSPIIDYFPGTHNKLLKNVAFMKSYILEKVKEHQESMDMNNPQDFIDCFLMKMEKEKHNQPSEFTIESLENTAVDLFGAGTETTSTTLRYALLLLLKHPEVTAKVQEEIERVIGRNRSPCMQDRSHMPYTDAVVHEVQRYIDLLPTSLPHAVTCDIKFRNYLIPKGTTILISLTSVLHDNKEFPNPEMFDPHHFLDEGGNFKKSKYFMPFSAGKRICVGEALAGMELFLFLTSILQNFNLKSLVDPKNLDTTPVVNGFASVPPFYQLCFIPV
# [6] = inhibitors of firefly luciferase expression or activity, dose response, H4 neuroglioma cells, luminescence (AID 1990); format: functional, cell-based
# [7] = Luminescence Cell-Based Dose Response HTS to Identify Inhibitors of 5'UTR Stem-Loop Driven Prion Protein mRNA Translation in H4 Neuroglioblastoma Cells. [Related pubchem assays: 1827 (Project Summary), 1813 (Primary HTS)]; format: functional
# [8] = inhibitors of SNCA 5'UTR-driven reporter translation, confirmation, H4 neuroglioma cells, luminescence (AID 1988); format: functional, cell-based
# [9] = inhibitors of intracellular T. cruzi replication, confirmation, NIH3T3 host cells, beta-gal luminescence (AID 2044); format: functional, cell-based;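 also: intracellular parasites grown in NIH/3T3 mouse fibroblasts as host cells; luminescent beta-galactosidase reporter signal from transgenic T. cruzi replicating inside host cells; inhibitors lower the luminescence signal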
# [10] = cytotoxicity toward NIH3T3 fibroblasts, dose response, counter-screen, cell-based, ATP luminescence, mouse fibroblasts (AID 2010); format: functional;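 also: cells exposed to compound for about 90 hours before reading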
# Cytochrome P450 2D6 = Cytochrome P450 2D6 (Homo sapiens, UniProt P10635);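 also: CYP2D6 member of a cytochrome P450 panel assay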
# Sequence of Cytochrome P450 2D6 (P10635 whole entry): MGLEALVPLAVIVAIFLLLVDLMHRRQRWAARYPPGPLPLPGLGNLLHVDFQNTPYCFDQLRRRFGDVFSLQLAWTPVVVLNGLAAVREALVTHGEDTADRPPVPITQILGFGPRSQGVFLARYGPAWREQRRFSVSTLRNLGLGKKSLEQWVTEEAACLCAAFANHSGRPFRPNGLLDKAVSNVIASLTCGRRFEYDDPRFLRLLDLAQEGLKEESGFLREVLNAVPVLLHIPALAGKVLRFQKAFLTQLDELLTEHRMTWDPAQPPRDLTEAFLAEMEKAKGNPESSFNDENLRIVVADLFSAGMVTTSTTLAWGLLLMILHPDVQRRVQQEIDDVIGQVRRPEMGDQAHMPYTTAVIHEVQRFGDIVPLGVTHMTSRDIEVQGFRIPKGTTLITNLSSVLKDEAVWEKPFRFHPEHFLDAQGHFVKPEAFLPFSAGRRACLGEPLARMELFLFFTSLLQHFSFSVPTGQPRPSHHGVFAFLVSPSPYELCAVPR
# Cytochrome P450 1A2 = biological target: T4, Cytochrome P450 1A2 (Homo sapiens, UniProt P05177);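 also: PubChem cytochrome P450 panel assay, CYP1A2 panel member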
# T4 sequence (P05177 whole entry): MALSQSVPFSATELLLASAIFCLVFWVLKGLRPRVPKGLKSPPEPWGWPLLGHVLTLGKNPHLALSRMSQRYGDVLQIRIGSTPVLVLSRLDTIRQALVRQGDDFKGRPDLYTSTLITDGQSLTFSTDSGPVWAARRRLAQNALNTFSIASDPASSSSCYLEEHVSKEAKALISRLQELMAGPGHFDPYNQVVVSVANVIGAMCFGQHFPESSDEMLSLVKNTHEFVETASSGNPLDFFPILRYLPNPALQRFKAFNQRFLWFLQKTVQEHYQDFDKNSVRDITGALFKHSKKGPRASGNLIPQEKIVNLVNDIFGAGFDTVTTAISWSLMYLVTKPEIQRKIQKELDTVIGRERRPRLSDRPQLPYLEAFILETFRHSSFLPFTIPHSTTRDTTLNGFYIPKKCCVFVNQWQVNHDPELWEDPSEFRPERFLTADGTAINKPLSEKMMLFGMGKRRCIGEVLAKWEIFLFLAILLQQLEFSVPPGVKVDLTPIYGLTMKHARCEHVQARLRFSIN
# Cytochrome P450 2C19 = Cytochrome P450 2C19 (Homo sapiens, UniProt P33261); experiment: Cytochrome panel assay with activity outcomes. Panel member name: p450-cyp2c19 Compounds with AC50 equal or less than 10 uM are considered active; format: functional; conditions: read-out: AC50
# Sequence of Cytochrome P450 2C19 (P33261 whole entry): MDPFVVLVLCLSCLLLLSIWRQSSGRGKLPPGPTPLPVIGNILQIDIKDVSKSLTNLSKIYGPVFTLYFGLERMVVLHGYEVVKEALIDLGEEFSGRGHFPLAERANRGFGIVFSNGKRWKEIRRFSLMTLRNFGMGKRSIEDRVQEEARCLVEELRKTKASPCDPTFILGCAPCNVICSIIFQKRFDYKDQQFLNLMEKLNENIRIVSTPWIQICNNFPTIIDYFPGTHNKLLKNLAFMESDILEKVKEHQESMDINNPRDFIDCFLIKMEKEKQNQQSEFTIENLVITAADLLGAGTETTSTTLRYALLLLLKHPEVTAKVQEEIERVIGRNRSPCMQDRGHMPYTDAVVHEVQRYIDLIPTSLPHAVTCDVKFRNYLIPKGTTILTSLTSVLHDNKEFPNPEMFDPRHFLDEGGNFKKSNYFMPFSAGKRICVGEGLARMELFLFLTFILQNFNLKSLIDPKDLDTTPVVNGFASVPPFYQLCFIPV
# [11] = control 3'UTR Renilla luciferase suppression, dose response, counter-screen for Shn3 inhibitor project, cell-based, Clone20-Shn3RL, cherry-picked (AID 624133); format: functional
# [12] = Shn3 3'UTR reporter inhibitors, dose response, cell-based, Clone20 osteoblasts, firefly luciferase, cherry-picked (AID 624132); format: functional;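 also: firefly luciferase luminescence from reporter carrying the Shn3 3'UTR in osteoblasts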
# [13] = HepG2 cell cytotoxicity, dose response, cytotoxicity control for Shn3 inhibitor project, CellTiter-Glo, cherry-picked (AID 624134); format: functional, cell-based
compound,measurement,setting,value
Cc1ccc(C(=O)C2=C(O)C(=O)N(Cc3ccco3)C2c2ccc(N(C)C)cc2)o1 (stereo not given),EC50,[1],> 300 µM (not active)
same,EC50,[2],> 300 µM (not active)
CC(Oc1ccc(F)cc1)C(=O)Nc1ccccc1N1CCCCC1 (stereo not given),EC50,[3],21 µM (active)
same,EC50,Streptokinase A,10.3 µM (active)
same,EC50,[4],11.8 µM (active)
same,EC50,Streptococcus,19.9 µM (active)
same,EC50,[5],27.3 µM (active)
O=c1c(CCc2ccccc2)nc2cnc(Nc3ccccc3)nc2n1C[C@H]1CCCO1,AC50,Cytochrome P450 2C9,20 µM (inconclusive)
COC(=O)c1cc(NC(=O)c2c(Cl)nc3sccn23)cc(C(=O)OC)c1,EC50,[6],12.3 µM (active)
same,EC50,[7],10.6 µM (active)
same,EC50,[8],9.13 µM (active)
CCCCCN1C=CC=C/C1=C\C=C(C#N)C#N,EC50,[1],> 300 µM (not active)
same,EC50,[2],30.3 µM (inconclusive)
Cc1n[nH]c(NNC(=O)c2ccccc2)c1[N+](=O)[O-],EC50,[1],4.96 µM (active)
same,EC50,[2],15.2 µM (active)
CCOC(=O)C1=C(CNCc2ccc(F)cc2)NC(=O)NC1c1cccc([N+](=O)[O-])c1 (stereo not given),EC50,[3],> 112 µM (not active)
same,EC50,[5],> 112 µM (not active)
O=c1oc(Nc2ccc(F)cc2)nc2ccccc12,EC50,[3],4.03 µM (active)
same,EC50,[5],8.06 µM (active)
CC1CN(c2nc3ccccc3nc2C(C#N)C(=O)NC2CCCCC2)CC(C)O1 (stereo not given),EC50,[1],> 300 µM (inconclusive)
same,EC50,[2],> 300 µM (not active)
COc1cc(OC)c(C2C(C#N)=C(N)OC3=C2C(=O)CC(C)(C)C3)cc1OC (stereo not given),EC50,[1],> 300 µM (not active)
same,EC50,[2],> 300 µM (not active)
Brc1ccc2c(c1)OCCOCCOc1cc(Br)ccc1OCCOCCOCCO2,EC50,[9],1.04 µM (active)
same,EC50,[6],14.1 µM (active)
same,EC50,[7],103 µM (active)
same,EC50,[10],> 60 µM (not active)
same,EC50,[8],> 120 µM (not active)
O=C(Cn1cc(C(=O)C(F)(F)F)c2ccccc21)NCc1ccco1,EC50,[3],> 112 µM (not active)
same,EC50,[5],> 112 µM (not active)
O=c1cnc2cncnc2n1Cc1ccccc1Cl,AC50,Cytochrome P450 2C9,20 µM (inconclusive)
same,AC50,Cytochrome P450 2D6,20 µM (inconclusive)
same,AC50,Cytochrome P450 1A2,15.8 µM (inconclusive)
COc1ccc(NC(=O)c2sc3nc(-c4cccnc4)ccc3c2N)cc1,EC50,[1],4.79 µM (active)
same,EC50,[2],40.6 µM (inconclusive)
COC(=O)C1CSc2[nH]c(=O)sc2C1c1ccccc1 (stereo not given),EC50,[1],7.46 µM (active)
same,EC50,[2],7.13 µM (active)
COc1cccc(C(=O)NCC2CCN(c3ccc(S(=O)(=O)N4CCOCC4)cc3)CC2)c1,EC50,[1],> 300 µM (not active)
same,EC50,[2],> 300 µM (not active)
C/C=C(/C)C(=O)Nc1cccc(C2=NOC3(C2)C[C@H](C(N)=O)N(C(=O)COc2ccc(Cl)cc2)C3)c1 (stereo not given in full),EC50,[6],> 120 µM (not active)
same,EC50,[7],87.6 µM (active)
same,EC50,[8],> 120 µM (not active)
O=C(Nc1cccc(-c2nc3ccccc3o2)c1)c1ccc(N2C(=O)C3C4C=CC(C4)C3C2=O)cc1 (stereo not given),EC50,[6],10.5 µM (active)
same,EC50,[7],> 120 µM (not active)
same,EC50,[8],9.98 µM (active)
C=CCNc1nc(N)c([N+](=O)[O-])c(NC2CCCCC2)n1,EC50,[6],28.9 µM (active)
same,EC50,[7],0.21 µM (active)
same,EC50,[8],> 120 µM (not active)
O=c1cnc2cnc(Oc3cccc(Cl)c3)nc2n1C[C@H]1CCCO1,AC50,Cytochrome P450 2C9,15.8 µM (inconclusive)
same,AC50,Cytochrome P450 2C19,39.8 µM (inconclusive)
c1ccc(C(c2ccccc2)N2CC[C@@]3(CCCNC3)C2)cc1,AC50,Cytochrome P450 2C9,31.6 µM (inconclusive)
O=C(CN1C(=O)c2cccc3cccc1c23)N1CCN(c2ccc(F)cc2)CC1,EC50,[3],> 112 µM (not active)
same,EC50,[5],> 112 µM (not active)
Cc1c(C(=O)N2CCCCC2)c(S(=O)(=O)N(C)Cc2ccccc2)c(C)n1C,EC50,[3],> 112 µM (not active)
same,EC50,[5],> 112 µM (not active)
COc1ccc2[nH]cc(CCNc3nc(-c4ccc(C(=O)N(C)C)cc4)nc4ccccc34)c2c1,AC50,Cytochrome P450 2C9,1 µM (inconclusive)
same,AC50,Cytochrome P450 2D6,20 µM (inconclusive)
CN(C)CCCN/C=C1\C(=O)NC(=O)N(CCc2ccc(F)cc2)C1=O,EC50,[1],> 300 µM (not active)
same,EC50,[2],> 300 µM (not active)
CCn1c(=O)c([N+](=O)[O-])c(NCCc2ccc(OC)c(OC)c2)c2ccccc21,EC50,[3],> 112 µM (not active)
same,EC50,[5],> 112 µM (not active)
CCCCc1ccc(Nc2nc(N3CCOCC3)nc(N3CCOCC3)n2)cc1,EC50,[3],> 112 µM (not active)
same,EC50,[5],> 112 µM (not active)
Cc1cc(C)n(C(=O)CCCCCCCCC(=O)n2nc(C)cc2C)n1,AC50,Cytochrome P450 2C9,0.251 µM (inconclusive)
same,AC50,Cytochrome P450 1A2,15.8 µM (inconclusive)
COc1cccc(-c2nc(C[S+]([O-])CC(=O)NCCc3ccc(C)cc3)c(C)o2)c1 (stereo not given),EC50,[3],> 112 µM (not active)
same,EC50,[5],> 112 µM (not active)
COc1ccc(N2CCN(S(=O)(=O)c3c(C)nc4sccn4c3=O)CC2)cc1,EC50,[3],> 112 µM (not active)
same,EC50,[5],> 112 µM (not active)
O=C1CC(=O)C(n2cncn2)C(c2cccc(Cl)c2)C1 (stereo not given),AC50,Cytochrome P450 2C9,25.1 µM (inconclusive)
same,AC50,Cytochrome P450 2C19,3.98 µM (inconclusive)
COc1ccc(CC(N)c2csc(NC(=O)Nc3cccc(C(F)(F)F)c3)n2)cc1 (stereo not given),AC50,[11],7.68 µM (active)
same,AC50,[12],8.4 µM (active)
same,AC50,[13],11 µM (active)
O=C(NCCCN1CCOCC1)C(=O)N/N=C/c1c2ccccc2cc2ccccc12,EC50,[6],12.2 µM (active)
same,EC50,[7],13.9 µM (active)
same,EC50,[8],9.11 µM (active)
COc1cccc(/C=N/Nc2nnc(C)n2N)c1OCc1ccccc1Cl,EC50,[6],> 120 µM (not active)
same,EC50,[7],> 120 µM (not active)
same,EC50,[8],> 120 µM (not active)
Cc1ccc(C(=O)N/N=C/c2ccc(-c3cccc(C(F)(F)F)c3)o2)cn1,EC50,[6],> 120 µM (not active)
same,EC50,[7],> 120 µM (not active)
same,EC50,[8],11.9 µM (active)
COc1cccc(C(=O)Nc2ccc(-c3nnc(-c4ccco4)o3)cc2)c1,AC50,Cytochrome P450 2C9,1.41 µM (inconclusive)
same,AC50,Cytochrome P450 2C19,2.82 µM (inconclusive)
